Experimental data as given in paper PMC10119128, “Parkinson’s disease-associated ATP13A2/PARK9 functions as a lysosomal H^+,K^+-ATPase” (Nature Communications, 2023).
pIC50: −log10 of the molar value.

Key:
ATP13A2 [1] = molecular target: T1, ATP13A2 (Homo sapiens, UniProt Q9NQ11); assay: ΔTG-sensitive ATPase activity in membrane fractions, mock control; […]+ efflux; siRNA knockdown in SH-SY5Y; type: biochemical
T1 construct: full-length, N-terminal Xpress-tag, membrane fractions of transfected HEK293 cells
T1 sequence (Q9NQ11 1-1180): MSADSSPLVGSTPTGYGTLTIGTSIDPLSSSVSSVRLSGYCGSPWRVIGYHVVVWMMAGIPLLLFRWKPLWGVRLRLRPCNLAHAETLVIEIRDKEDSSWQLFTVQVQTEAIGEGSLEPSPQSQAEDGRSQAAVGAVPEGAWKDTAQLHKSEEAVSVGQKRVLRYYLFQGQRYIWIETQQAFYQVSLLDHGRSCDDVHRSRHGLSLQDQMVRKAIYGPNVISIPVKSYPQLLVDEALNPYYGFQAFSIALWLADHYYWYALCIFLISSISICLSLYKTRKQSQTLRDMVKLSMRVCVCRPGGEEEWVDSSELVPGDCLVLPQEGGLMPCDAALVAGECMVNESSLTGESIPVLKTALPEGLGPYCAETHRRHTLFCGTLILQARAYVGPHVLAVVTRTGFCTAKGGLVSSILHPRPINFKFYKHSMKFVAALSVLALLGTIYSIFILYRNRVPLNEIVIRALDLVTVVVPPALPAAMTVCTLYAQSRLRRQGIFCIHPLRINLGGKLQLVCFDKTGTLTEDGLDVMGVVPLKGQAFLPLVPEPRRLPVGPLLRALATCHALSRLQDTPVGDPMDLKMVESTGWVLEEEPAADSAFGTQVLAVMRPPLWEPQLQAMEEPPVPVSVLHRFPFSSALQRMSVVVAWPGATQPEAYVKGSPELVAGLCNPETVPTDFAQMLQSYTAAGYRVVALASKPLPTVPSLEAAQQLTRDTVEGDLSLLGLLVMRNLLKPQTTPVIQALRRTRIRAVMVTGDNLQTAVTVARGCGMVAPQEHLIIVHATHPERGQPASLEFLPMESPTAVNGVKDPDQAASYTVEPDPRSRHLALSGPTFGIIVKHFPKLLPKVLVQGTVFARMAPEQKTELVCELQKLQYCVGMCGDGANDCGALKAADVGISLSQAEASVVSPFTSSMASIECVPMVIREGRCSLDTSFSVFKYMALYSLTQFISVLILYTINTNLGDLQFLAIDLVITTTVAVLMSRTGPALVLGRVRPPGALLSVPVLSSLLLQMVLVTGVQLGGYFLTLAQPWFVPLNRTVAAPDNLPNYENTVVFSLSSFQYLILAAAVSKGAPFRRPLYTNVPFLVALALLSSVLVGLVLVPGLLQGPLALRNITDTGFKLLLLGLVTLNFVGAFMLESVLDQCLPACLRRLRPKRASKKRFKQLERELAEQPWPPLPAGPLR

ATP13A2 [2] = molecular target: T1, ATP13A2; assay: ΔTG-sensitive ATPase activity in membrane fractions, mock control; […]+ efflux; type: biochemical

pIC50 (ATP13A2 [1])	SMILES	pIC50 (ATP13A2 [2])
5.92	Cc1nc2c(OCc3ccccc3)cccn2c1CC#N [SCH28080]	
6.10	CNCc1cc(-c2ccccc2F)n(S(=O)(=O)c2cccnc2)c1 [vonoprazan]	
	CO/C1=C\C(C)=C\[C@@H](C)[C@@H](O)[C@@H](C)C/C(C)=C/C=C/[C@H](OC)[C@@H]([C@@H](C)[C@@H](O)[C@H](C)[C@@]2(O)C[C@@H](O)[C@H](C)[C@@H](C(C)C)O2)OC1=O [bafilomycin A1]	9.30
